Data on two molecules can be found in US10792268B2, “Methods of sustaining dietary ketosis and its effects on lipid profile” (priority 2014, dated 2020).

Marks after values point to notes of the source that are not given here.

Common to all, as to type: in vivo, Sprague-Dawley rats
Data set [1] is described as follows: Blood glucose levels after intragastric gavage of ketone supplements. The following applies: rats; for blood glucose levels, overall over the 4 weeks: 5 g/kg gavage daily; for blood glucose levels, week 1: FIG. 4(B). As to the method:
(§1) Adult male Sprague-Dawley rats (n=74), 275-325 grams, were obtained from Harlan, and randomly assigned to the following groups: control (water), R,S-1,3-butanediol (BD), or R,S-1,3-butanediol acetoacetate diester (KE). Rats were treated daily with 5 g/kg intragastric gavage of BD or KE for days 1-28. Animals were weighed once per week to maintain accurate dosage using the Mittler Toledo SB16001 scales. Gavage was given between 10 am-1 pm daily to eliminate variance based on regular eating patterns. Diets were not restricted for this study.
(§2) Once a week, animals were fasted, with water still available for 4 hours prior to intragastric gavage to eliminate blood glucose and ketone variance of regular eating habits. Whole blood samples (10 μl) were acquired from the saphenous vein for analysis of glucose and βHB utilizing the commercially available glucose and ketone monitoring system Precision Xtra™ (Abbott Laboratories, Abbott Park, Ill.) at time 0, 0.5, 1, 4, 8, and 12 hours after test substance administration, or until βHB returned to baseline. On Day 0 (Week 0) and Day 28 (Week 4), whole blood samples (10 μL) were acquired for analysis of total cholesterol, HDL, and triglycerides for a lipid panel utilizing the commercially available home cholesterol analyzer Cardio Chek™ (Polymer Technology Systems, Inc., Indianapolis, Ind.) at time 0.

The nature of data set [2]: Lipid panel (total cholesterol, HDL, triglycerides) at week 0 and week 4. To be noted: rats, after 4-week chronic dosage, 5 g/kg. As to the method: as §1, §2
Data set [3] is described as follows: Harvested organ weights at week 4. To be noted: rats, versus control; for liver weight: week 4 harvested organs. As to the method:
Animals treated from Example 1 were sacrificed by CO2 between 4-8 hours after gavage-treatment at the end of 4 weeks (28 days at the dose of 5-10 g/kg), which were determined to be peak ketone elevation. Brain, Lungs, Liver, Kidneys, Spleen and Heart were harvest and weighed using AWS-1000 1 kg portable digital scale (AWS, Charleston, S.C.). Organs were then either flash frozen in liquid nitrogen or preserved in paraformaldehyde for future analysis.

In another data set the test system is hepatocyte cell nuclei. The experiment in a line: Liver histology (H&E stain) after 28 days of ketone supplementation. To be noted: for fat deposits in liver sections / hepatocyte nucleus number, maximum / hepatocyte nucleus number, minimum / number of RBCs and capillaries in liver sections compared to control / hepatocyte nucleus number, average: rats, 28 days gavage at maximum tolerable dose (5-10 g/kg); for number of RBCs and capillaries in liver sections compared to control: data not shown; for hepatocyte nucleus number, average: minimum 5 images/animal, 5 animals/group; for hepatocyte nucleus number, significance (p, unpaired t-test versus control): significant if p < 0.05. The protocol:
Livers from rats administered maximum tolerable dose of ketone supplementation were assessed via histology. The livers from rats treated 4-weeks with ketone supplementation appeared normal in color, size and texture in all groups upon harvesting. The livers were sectioned for histology and stained with Hematoxylin and Eosin (H&E stain), and analyzed by a trained pathologist to assess histopathological changes, including changes in liver cytoarchitecture, presence of steatosis, steatofibrosis, cell nuclei density, capillary density, presence of red blood cells (RBCs) and signs of inflammatory processes (e.g. macrophages).
The representative images are liver sections of Sprague-Dawley that were gavaged daily with water; 1,3-butanediol (BD); Ketone Ester (KE);) for 28 days at the maximum tolerable dose (5-10 g/kg). […] It should be noted that 1,3-butanediol has alcohol-like properties and requires hepatocytes to enzymatically metabolize the di-alcohol through cytosolic alcohol dehydrogenase and the induction of cytochrome p450 enzymes for conversion to βHB. The processes are associated with an increase in liver metabolism and blood flow, possibly resulting in greater number of RBCs and capillaries. There was also a modest, but statistically significant increase in hepatocyte cell nuclei, seen in Table 2, although no indications of liver damage, inflammation, fibrosis or presence of Mallory-Denk bodies were observed.

Data set [4] in a line: Change of body weight over 4 weeks of ketone supplementation. To be noted: rats, 5 g/kg gavage daily, weekly weighing over 4 weeks. The protocol: as §1
Animal weights were obtained weekly (Mittler Toledo SB16001 scales).

The nature of data set [5]: Blood ketone (βHB) levels after intragastric gavage of ketone supplements. The following applies: rats; for duration of elevated blood ketones (starting at 30 min): 5 g/kg for all four weeks. The protocol: as §1, §2
Data set [6] is described as follows: Global metabolic profiling of serum and hippocampus (GC/MS and LC/MS/MS) after 28-day treatment. To be noted: rats. As to the method:
Rats were treated as described in Example 1, and brain and serum samples were extracted and prepared for analysis using a standard solvent extraction method (Metabolon Inc., Durham, N.C.) at 28 days after initiation of treatment. The extracted samples were split into equal parts for analysis on the GC/MS and LC/MS/MS platforms. Instrument variability was determined by calculating the median relative standard deviation (RSD) for the internal standards that were added to each sample prior to injection into the mass spectrometers.
A total of 388 and 290 compounds were identified in serum and hippocampus samples, respectively. […] The less robust changes in the hippocampal tissue may have been due to the time frame needed to dissect the hippocampal tissue from the brain prior to flash freezing (2-4 minutes). Random Forest (RF) is a supervised classification technique reporting on the consensus of a large number of decision trees. In this study, the serum and hippocampus profiles of animals subjected to different dietary treatments were classified in order to: 1) assess the capacity to distinguish between dietary treatment on the basis of global metabolic profiles and 2) identify biochemicals important to the classification. A classification accuracy of 33% is expected by random chance when comparing three groups. For this study, classification of serum and hippocampus samples was 100% and 83% accurate, respectively, in correctly categorizing samples into their proper groups. […] In serum, the biochemical key to classifying the groups included biomarkers related to ketones, energy metabolites, medium-chain fatty acids, and ketones were key factors for hippocampal group classification.

[7] abbreviates: 5 g/kg gavage, FIG. 3 (text: week 6; legend: week 4).

Consider `C[C@H](O)CCO` [BD, R,S-1,3-butanediol], for which the “blood glucose levels, overall over the 4 weeks” value in data set [1] was “did not appear to drastically affect glucose levels”. The “blood glucose levels, week 1” value in data set [1] (5 g/kg gavage) is on record as “non-significant reduction”. In data set [2], the “Triglyceride levels at week 4” value is recorded as “mildly elevated”. The non-liver organ weight entry in data set [3] (week 4 harvested organs (brain, lungs, kidneys, spleen, heart)) is “no significant change in non-liver organ weight”. In data set [3], the liver weight result is recorded as “not a significant change in liver weight”. In the data set with hepatocyte cell nuclei, the “fat deposits in liver sections” value is “the most prevalence of fat deposition”; the “hepatocyte nucleus number, maximum” value worked out at 120; the “hepatocyte nucleus number, minimum” value came to 70; the “number of RBCs and capillaries in liver sections compared to control” value is “trend for greater number of RBCs and capillaries”. In the data set with hepatocyte cell nuclei, the “hepatocyte nucleus number, average” value stood at 93.56 and the “hepatocyte nucleus number, significance (p, unpaired t-test versus control)” value is on record as 0.585. The “fat deposits in liver sections” value with hepatocyte cell nuclei (listed as BE) was “evident”. The “body weight increase versus control” value in data set [4] is listed as “modestly decreased body weight increases”. Further, the “duration of elevated blood ketones (starting at 30 min)” value in data set [5] amounted to 8 h. Further, the “ketone bodies, peak at 4 hours” value in data set [5] (5 g/kg gavage, FIG. 1(A), week 0) is 1.0 mM/L. Besides, in data set [5] (setting [7]), the “ketone bodies, initial peak at 30 minutes” value is listed as “around 0.8 mM/L” and the “ketone bodies, second peak at 8 hours” value is “around 0.8 mM/L”. Besides, the “time of ketone body peak after treatment” value in data set [5] (5 g/kg intragastric gavage daily, overall trend) stood at 30 min.
Take `CC(=O)CC(=O)OCCC(C)OC(=O)CC(C)=O` (centres unmarked) [KE, R,S-1,3-butanediol acetoacetate diester]: in data set [1], the “blood glucose levels, overall over the 4 weeks” value is recorded as “reductions in glucose levels began at 30 minutes after treatment through 4 hours”. Also, in data set [1] (5 g/kg gavage, FIG. 4(A)), the “blood glucose levels, week 0” value is listed as “reduction in glucose levels by 1 hour after treatment”. In data set [1] (5 g/kg gavage), the “blood glucose levels, week 1” value was “continued the trend”. In addition, the “blood glucose levels, week 2” value in data set [1] (5 g/kg gavage, FIG. 5(A)) is reported as “enhanced reduction in glucose”. Moreover, in data set [1] (5 g/kg gavage, FIG. 5(B)), the “blood glucose levels, week 3” value is recorded as “moderate reductions at 4 hours after treatment”. The “blood glucose levels, week 4” value in data set [1] (5 g/kg gavage, FIG. 6) is recorded as “reduced glucose levels through 4 hours after treatment”. For the same molecule, the “Triglyceride levels at week 4” value in data set [2] is “little change”. In data set [6] (5 g/kg, 28 days, blood serum), the “alpha-ketoglutarate, metabolite ratio relative to a standard diet (SD) alone” value is 1.98^a; the “citrate, metabolite ratio relative to a standard diet (SD) alone” value is reported as 1.99^a; the “fumarate, metabolite ratio relative to a standard diet (SD) alone” value is given as 1.92^a; the “malate, metabolite ratio relative to a standard diet (SD) alone” value was 2.03^a. In addition, the “succinate, metabolite ratio relative to a standard diet (SD) alone” value in data set [6] (5 g/kg, 28 days, blood serum) came to 1.25. In addition, in data set [6] (28-day treatment, hippocampus, FIG. 16), the “brain ketone levels, elevation with respect to controls” value was over 2 fold. The “serum ketone levels, elevation with respect to controls” value in data set [6] (28-day treatment, serum, FIG. 15) is recorded as over 15 fold. Also, the liver weight entry in data set [3] is “statistically significant reduction in liver weight”. For the same molecule, in the data set with hepatocyte cell nuclei, the “fat deposits in liver sections” value is “evident”; the “hepatocyte nucleus number, maximum” value stood at 141; the “hepatocyte nucleus number, minimum” value is on record as 83; the “number of RBCs and capillaries in liver sections compared to control” value was “trend for greater number of RBCs and capillaries”. In the data set with hepatocyte cell nuclei, the “hepatocyte nucleus number, average” value was 107.80^a and the “hepatocyte nucleus number, significance (p, unpaired t-test versus control)” value came out at 0.002. For the same molecule, the “body weight increase versus control” value in data set [4] is recorded as “further reduced weight gains compared to BD treatment”. Moreover, the “duration of elevated blood ketones (starting at 30 min)” value in data set [5] turned out to be 8 h.
